Read-outs that look alike come from different tables or passages of the source.
Columns and labels:
[1] = tested on: rat pheochromocytoma cells transfected with the M1 mAChR
Procedure: Confluent rat pheochromocytoma cells transfected with the M1 mAChR cultures were detached with trypsin, washed and plated in 24well, 6-well, 60-mm or 100-mm plates that were precoated with rat tail collagen (Sigma, Israel). Several experiments were performed in serum-free medium. For 3-(4,5-dimethylthiazol-2-yl)-2,5-diphenyl-tetrazolium bromide (MIT) assay, cells (1.5×10^4) were plated in 96-well collagen-precoated plates, in serum-free medium, with or without various drugs for 24 hours. For differentiation, cells were grown in the presence of 1% FCS and 1% HS, with addition of 50 ng/ml NGF for 7 days, to cause full differentiation. […] After 7 days, cells were washed and the medium was either replaced to serum-free, or cells were detached and replated in serum-free medium. Cells in serum-free medium were treated either with Aβ peptides that were previously “aged” or with H2O2. Tested compounds were added together with the insults for the indicated time, unless otherwise stated.
Cells were grown and treated on glass coverslips. After treatments, cells were fixed in cold methanol for 5 min at −20° C. followed by treatment with cold acetone at 4° C. for 2 min and washing in PBS. The coverslips were fluorescently stained with DAPI (4,6-diamidino-2-phenylindole; 5 mg/ml, Sigma, Israel) an intercalating agent that enables visualization of chromatin condensation in the cell nuclei for 15 min at room temperature. Cells were washed three times with PBS, mounted in a solution of glycerol containing 22 mM 1,4 dizabicyclo(2,2,2)octane (Sigma, Israel) to prevent fading, and viewed for nuclear chromatin morphology with a fluorescence microscope. Apoptotic and viable cells were counted (200 cells per coverslip, each experiment was performed in duplicates).
The TUNEL (Terminal deoxynucleotidyl transferase (TdT) mediated dUTP nick end labeling) method enzymatically labels DNA fragments at the 3′OH ends (representing the DNA strand breaks) with fluorescein-dUPT (Boehringer Mannheim, Germany). Briefly, following treatment, cells grown on Chamber slides were fixed with paraformaldehyde solution (4%) in PBS, pH 7.4 for 30 min at room temperature. Following washing with PBS cells were permeabilized using 0.1% Triton X-100, 0.1% sodium citrate solution, for 2 min on ice (4° C.), washed with PBS and 50 μl of TUNEL reaction mixture was added on each sample for 1 hr at 37° C., in a humidified chamber. Evans Blue reagent (diluted 1:2000 in PBS) was added for 5 min and the slides were viewed with fluorescence microscope.
Cells were differentiated for 7 days and detached from the plates with Trypsin. 10^6 cells were replated in 50-mm collagen-coated plates in serum-free medium in presence or absence of various treatments. 200-g-centrifuged pellets were prepared and resuspended in 300 μl PBS. 4 ml of cold methanol (−20° C.) were added to each test tube and the fixation was carried out for 15 min at −20° C. Cells were washed in PBS, spun and resuspended in 1 ml PBS. Five microliters of Propidium iodide stock solution (Sigma; 10 mg/ml) and 5 μl of 20 mg/ml solution of RNAse A were added for 5-10 min at room temperature. Fluorescence of individual nuclei was measured using Fluorescence Activated Cell Sorter (FACScan; Becton Dickinson Corp.) excited at 488 nm wavelength and collected through 575±21 nm BP filter. The data were analyzed by Cell Quest software computer system. By this method we were able to measure DNA content of the cells (apoptotic cells have less DNA). Cells in G1 phase of cell cycle are after mitosis and have less DNA than cells in G2/M phase (before and during mitosis). Apoptotic cells were identified as the pre-G1 phase.

[2] = mouse, in vivo
[3] = tested on: cortical and hippocampal cell culture; experiment: Protection against NMDA-induced cell death in primary rat brain cultures; conditions: for neuroprotective potency against 200 μM NMDA, compared with 20 μM MK801: 100 μM agonist; for prevention of NMDA-induced cell death: 20-24 hrs
[4] = molecular target: T1, human M1 receptor (Homo sapiens, UniProt P11229); experiment: Arachidonic acid (AA) release, human M1; format: cell-based
T1 construct: expressed in transfected cells
T1 sequence (P11229 1-460): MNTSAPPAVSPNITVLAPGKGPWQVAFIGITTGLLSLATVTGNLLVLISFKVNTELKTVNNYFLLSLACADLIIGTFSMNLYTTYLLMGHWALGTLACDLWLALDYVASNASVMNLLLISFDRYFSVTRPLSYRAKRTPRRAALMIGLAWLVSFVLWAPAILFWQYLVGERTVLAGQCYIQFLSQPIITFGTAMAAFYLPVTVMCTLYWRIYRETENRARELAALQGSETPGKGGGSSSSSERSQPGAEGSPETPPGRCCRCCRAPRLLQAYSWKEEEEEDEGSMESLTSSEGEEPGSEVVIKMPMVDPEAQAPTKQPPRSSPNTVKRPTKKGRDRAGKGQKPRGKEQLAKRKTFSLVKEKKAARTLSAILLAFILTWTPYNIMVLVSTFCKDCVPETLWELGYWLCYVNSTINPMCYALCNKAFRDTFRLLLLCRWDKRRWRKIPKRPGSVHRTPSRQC

[5] = molecular target: rat M1 mAChR (Rattus norvegicus, UniProt P08482); experiment: PI turnover, rat M1 mAChR; format: cell-based
[6] = Passive avoidance in trihexyphenidyl treated rats; format: in vivo, rat; conditions: for Trihexyphenidyl-rats-Passive avoidance, effect: AF292 0.03, 0.05, 0.1, 0.3, 0.5 mg/kg p.o., AF267B 0.5, 1, 5; for Trihexyphenidyl-rats-Passive avoidance, MED: p.o.
Source text: Trihexyphenidyl is a selective M1 muscarinic antagonist that crosses the blood brain barrier and induces memory and learning impairments (Bymaster et al. J Pharmacol Exp Ther 267: 16-24, 1993. Roldan et al Neurosci. Lett. 230: 93-96, 1997; Kimura et al Brain Res. 834: 6-12, 1999).
Naive Wistar rats were used in the experiments below. The passive avoidance (PA) task is comprised of training (acquisition) phase and a retention phase. In the training procedure each rat was individually placed in the small illuminated compartment and after 60 sec. of familiarization/adaptation, the door to the large compartment was opened and the latency to enter was measured (Initial Latency). Immediately following entry into the dark compartment, the door was closed and inescapable foot shock (0.6 mA for 3 sec) was delivered through the grid floor. A cutoff point of 180 sec was used for initial latency. […] After the acquisition trial the rat was returned to its home cage. Retention of the passive avoidance task was measured 24 h later, by again placing the rat in the light compartment and after a 60 sec adaptation interval, the door was opened and the latency to renter the dark compartment was measured. A cutoff point of 300 sec was used for retention latency.

[7] = Pharmacokinetic study in dogs; format: in vivo, Beagle dog; conditions: for bioavailability: Beagle, dog, plasma, po, read-out: Bioavailability (% F)
Source text: The results of the PK profile of AF292 in rats and Beagle dogs (overnight fasting; drug administered in water solution; gavage) are listed in Table 1.

Chain of rat M1 mAChR (P08482 whole entry): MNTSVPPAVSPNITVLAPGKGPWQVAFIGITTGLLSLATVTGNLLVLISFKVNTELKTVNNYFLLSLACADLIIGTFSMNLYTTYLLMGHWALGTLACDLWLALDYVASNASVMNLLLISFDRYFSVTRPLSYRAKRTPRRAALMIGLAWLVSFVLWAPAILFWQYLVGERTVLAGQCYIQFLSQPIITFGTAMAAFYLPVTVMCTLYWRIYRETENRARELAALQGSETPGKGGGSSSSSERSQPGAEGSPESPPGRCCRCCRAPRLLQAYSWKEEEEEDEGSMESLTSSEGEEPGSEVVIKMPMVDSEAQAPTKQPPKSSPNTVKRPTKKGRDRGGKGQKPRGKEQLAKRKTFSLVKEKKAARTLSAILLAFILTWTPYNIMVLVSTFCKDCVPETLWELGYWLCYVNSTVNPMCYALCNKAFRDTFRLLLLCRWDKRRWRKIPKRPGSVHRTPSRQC

Row | SMILES | H2O2-induced apoptosis (DAPI) [1] | apoptotic cell death induced by starvation (DAPI) [1] | apoptotic death during starvation (FACS) [1] | β-amyloid 25-35 induced apoptosis (TUNEL) [1] | β-amyloid increased apoptotic population (FACS) [1] | Tmax / peak in brain [2] [min] | brain penetration time ([2]; iv) [min] | neuroprotective potency against 200 μM NMDA, compared with 20 μM MK801 [3] | prevention of NMDA-induced cell death [3] | AA release vs. CCh (as 100%) [4] [%] | PI turnover vs. CCh (as 100%) [5] | Trihexyphenidyl-rats-Passive avoidance, effect [6] | Trihexyphenidyl-rats-Passive avoidance, MED [6] | bioavailability ([7]; Dogs., 1 mg/kg, p.o.) [%] | Tmax ([7]; Dogs., 1 mg/kg, p.o.) [min] | time after dosing detected in the brain [2] [min] | Trihexyphenidyl-rats-Passive avoidance, duration ([6]; rat, in vivo) | potency among the tested agonists ([6]; rat, in vivo) | bioavailability ([7]; Dogs, 5 mg/kg. p.o.) [%]
1 | CC1=NCC2(CCN(C)CC2)S1 [AF150(S), 2,8-Dimethyl-1-thia-3,8-diaza-spiro[4.5]dec-2-ene] | prevented | significantly protect | protected cells from apoptotic death | able to block the apoptosis | reduced the apoptotic population significantly | 1 to 10 | 1 | slightly less | effective in prevention of cell death | – | – | – | – | – | – | – | – | – | –
2 | CC[C@@H]1SC2(CCN(C)CC2)NC1=O [AF267B, (S)-2-ethyl-8-methyl-1-thia-4,8-diaza-spiro[4.5]decan-3-one] | prevented | significantly protect | protected cells from apoptotic death | – | reduced the apoptotic population significantly | 20 to 30 | – | slightly less | effective in prevention of cell death | 100 | PI, rat M1 mAChR: 75% | 0.5, 1, 5 positive effects | MED 0.1-0.5 mg/kg, p.o. | 53 | 34.8 to 45 | 2 to 240 | – | – | –
3 | CC[C@@H]1SC2(CCNCC2)NC1=O [AF292, (S)-2-Ethyl-1-thia-4,8-diaza-spiro[4.5]decan-3-one] | – | – | – | – | – | – | – | – | – | > 88 | PI, rat M1 mAChR; 50% | positive effects | ≤ 0.03 mg/kg | – | – | – | LONG DURATION OF ACTION | most potent compound among the tested agonists | 70

— patent US7439251B2, “Methods and compositions for treatment of central and peripheral nervous system disorders and novel compounds useful therefor” (Israel Institute for Biological Research, priority 2002, dated 2008)
